Data published in ChEMBL document CHEMBL2151032, “Structural and enzymatic analyses reveal the binding mode of a novel series of Francisella tularensis enoyl reductase (FabI) inhibitors” (J Med Chem, 2012).

Biological target: T1, Enoyl-[acyl-carrier-protein] reductase [NADH] (Francisella tularensis subsp. tularensis (strain SCHU S4 / Schu 4), UniProt Q5NGQ3)
T1 sequence (Q5NGQ3 whole entry): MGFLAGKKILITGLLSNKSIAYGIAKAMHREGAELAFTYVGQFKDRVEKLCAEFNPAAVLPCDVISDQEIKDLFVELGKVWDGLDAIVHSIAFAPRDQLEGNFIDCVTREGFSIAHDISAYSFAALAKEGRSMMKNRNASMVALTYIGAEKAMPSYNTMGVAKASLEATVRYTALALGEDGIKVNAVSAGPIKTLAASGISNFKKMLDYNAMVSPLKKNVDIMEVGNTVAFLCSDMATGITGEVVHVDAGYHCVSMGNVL

Structure (SMILES): Cc1cc2ncn(Cc3ccc(Cl)c(Cl)c3)c2cc1C
- Ki: 360 nM
